The values below are quoted from earlier work in patent US20260146084A1, “METHODS FOR TREATING MYELOFIBROSIS AND RELATED CONDITIONS” (Disc Medicine, Inc., priority 2019, published 2026).

Data set [1] deals with pro-inflammatory cytokines. Particulars: mouse models.
The test system of data set [2] is myelofibrosis patients.
Data set [3] has as its target JAK2 (Homo sapiens, UniProt O60674).
The target of data set [4] is JAK1 (Homo sapiens, UniProt P23458).
Data set [5] addresses T1, ACVR1 (HJV signaling partner) (Homo sapiens, UniProt Q04771).
T1 sequence (Q04771 21-509): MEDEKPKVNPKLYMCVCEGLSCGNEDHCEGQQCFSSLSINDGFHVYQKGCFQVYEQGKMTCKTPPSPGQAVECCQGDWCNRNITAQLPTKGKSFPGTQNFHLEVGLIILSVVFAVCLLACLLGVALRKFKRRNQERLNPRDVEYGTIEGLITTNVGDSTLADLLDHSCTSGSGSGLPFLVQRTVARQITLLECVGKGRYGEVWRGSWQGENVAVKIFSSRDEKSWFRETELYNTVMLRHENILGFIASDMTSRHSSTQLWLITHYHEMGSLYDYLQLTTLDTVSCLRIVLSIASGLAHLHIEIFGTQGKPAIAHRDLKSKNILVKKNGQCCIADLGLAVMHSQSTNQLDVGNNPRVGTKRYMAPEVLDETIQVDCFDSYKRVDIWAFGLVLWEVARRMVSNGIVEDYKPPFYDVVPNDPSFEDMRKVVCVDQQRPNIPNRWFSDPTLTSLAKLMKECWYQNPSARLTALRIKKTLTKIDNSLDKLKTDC

Sequence of JAK2 (O60674 whole entry): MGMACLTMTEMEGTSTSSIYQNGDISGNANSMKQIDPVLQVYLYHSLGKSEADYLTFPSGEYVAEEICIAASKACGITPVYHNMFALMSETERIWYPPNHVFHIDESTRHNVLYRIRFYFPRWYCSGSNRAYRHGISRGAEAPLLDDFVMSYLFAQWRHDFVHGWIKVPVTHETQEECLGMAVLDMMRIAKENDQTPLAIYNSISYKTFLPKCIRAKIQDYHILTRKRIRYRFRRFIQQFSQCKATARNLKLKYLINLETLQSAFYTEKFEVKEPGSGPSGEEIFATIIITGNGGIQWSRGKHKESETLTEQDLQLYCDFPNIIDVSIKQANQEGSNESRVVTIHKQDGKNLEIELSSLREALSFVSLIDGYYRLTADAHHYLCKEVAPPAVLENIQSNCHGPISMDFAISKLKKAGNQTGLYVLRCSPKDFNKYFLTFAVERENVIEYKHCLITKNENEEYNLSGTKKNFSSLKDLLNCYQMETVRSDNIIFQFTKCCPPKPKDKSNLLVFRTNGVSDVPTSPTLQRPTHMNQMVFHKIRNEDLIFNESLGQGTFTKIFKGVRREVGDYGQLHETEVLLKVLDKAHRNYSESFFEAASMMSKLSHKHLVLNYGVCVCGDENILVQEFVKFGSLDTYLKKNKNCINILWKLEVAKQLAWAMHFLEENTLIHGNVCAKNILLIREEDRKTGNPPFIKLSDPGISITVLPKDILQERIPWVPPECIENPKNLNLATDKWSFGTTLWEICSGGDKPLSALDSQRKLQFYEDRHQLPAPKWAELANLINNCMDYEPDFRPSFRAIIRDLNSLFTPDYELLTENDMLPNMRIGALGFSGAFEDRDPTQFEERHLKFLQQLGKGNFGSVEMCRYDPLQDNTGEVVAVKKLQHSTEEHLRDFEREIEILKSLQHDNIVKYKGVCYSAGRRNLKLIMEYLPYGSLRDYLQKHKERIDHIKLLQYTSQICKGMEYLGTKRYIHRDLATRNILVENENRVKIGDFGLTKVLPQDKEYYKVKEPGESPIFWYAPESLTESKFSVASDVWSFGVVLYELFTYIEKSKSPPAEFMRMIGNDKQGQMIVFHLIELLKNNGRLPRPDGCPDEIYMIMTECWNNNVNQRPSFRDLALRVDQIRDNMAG
Sequence of JAK1 (P23458 whole entry): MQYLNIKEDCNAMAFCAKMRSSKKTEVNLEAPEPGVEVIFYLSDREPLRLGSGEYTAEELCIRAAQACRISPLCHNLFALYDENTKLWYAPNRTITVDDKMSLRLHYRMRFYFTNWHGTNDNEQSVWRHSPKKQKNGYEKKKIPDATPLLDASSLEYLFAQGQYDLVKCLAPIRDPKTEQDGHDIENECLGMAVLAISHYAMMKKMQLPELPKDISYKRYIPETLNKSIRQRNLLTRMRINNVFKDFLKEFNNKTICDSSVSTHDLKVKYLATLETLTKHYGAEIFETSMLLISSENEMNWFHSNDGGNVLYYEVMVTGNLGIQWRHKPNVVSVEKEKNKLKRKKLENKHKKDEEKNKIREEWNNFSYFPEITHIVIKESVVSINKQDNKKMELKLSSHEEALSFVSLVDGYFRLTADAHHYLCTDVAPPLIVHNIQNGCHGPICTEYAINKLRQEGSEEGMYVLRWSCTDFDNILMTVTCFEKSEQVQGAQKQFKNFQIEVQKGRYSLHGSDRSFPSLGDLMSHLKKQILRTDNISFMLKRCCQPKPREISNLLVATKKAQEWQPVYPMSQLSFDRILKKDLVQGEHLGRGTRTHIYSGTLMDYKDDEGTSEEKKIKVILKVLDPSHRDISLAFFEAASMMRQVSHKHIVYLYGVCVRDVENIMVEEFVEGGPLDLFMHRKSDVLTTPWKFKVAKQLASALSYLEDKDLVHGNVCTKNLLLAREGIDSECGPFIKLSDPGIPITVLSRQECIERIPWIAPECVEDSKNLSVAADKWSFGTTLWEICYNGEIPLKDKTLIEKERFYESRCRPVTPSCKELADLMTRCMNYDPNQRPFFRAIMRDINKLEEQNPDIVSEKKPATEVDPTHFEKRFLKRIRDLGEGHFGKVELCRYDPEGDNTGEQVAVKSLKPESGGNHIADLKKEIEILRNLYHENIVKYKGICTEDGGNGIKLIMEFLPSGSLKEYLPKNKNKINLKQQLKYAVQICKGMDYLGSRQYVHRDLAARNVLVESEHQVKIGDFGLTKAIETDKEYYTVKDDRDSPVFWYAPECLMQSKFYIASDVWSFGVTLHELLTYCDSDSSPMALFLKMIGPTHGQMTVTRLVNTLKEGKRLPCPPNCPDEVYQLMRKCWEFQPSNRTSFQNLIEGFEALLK

In the case of `Cc1noc2c1-c1ccccc1C(c1ccc(Cl)cc1)=N[C@H]2CC(N)=O` [CP-0610], in data set [1], the pro-inflammatory cytokines entry is given as “downregulated pro-inflammatory cytokines”.
Take `Cc1cnc(Nc2ccc(OCCN3CCCC3)cc2)nc1Nc1cccc(S(=O)(=O)NC(C)(C)C)c1` [Fedratinib]: in data set [2], the effect on anemia entry is given as “worsens anemia”.
As to `N#CCNC(=O)c1ccc(-c2ccnc(Nc3ccc(N4CCOCC4)cc3)n2)cc1` [Momelotinib], in data set [3], the “inhibition of JAK2” value is on record as “inhibits”. In data set [4], the “inhibition of JAK1” value was “inhibits”. Further, the “inhibition of ACVR1” value in data set [5] is listed as “inhibits”. In addition, in data set [2], the effect on anemia entry is recorded as “improves anemia”; the “effect on splenomegaly and disease symptoms” value is on record as “improving disease symptoms”.
Regarding `N#CC[C@H](C1CCCC1)n1cc(-c2ncnc3[nH]ccc23)cn1` [ruxolitinib], the effect on anemia result in data set [2] was “worsens anemia”.
